The source of these data is patent US6321750A, “Condom lubricants with zinc salts as anti-viral additives” (priority 1999, dated 2001).

The test system of data set [1] is H-9 lymphocytes. Briefly: Toxicity to lymphocytes. It is filed as cell-based. The procedure: In a first set of tests, 20 mg of zinc acetate powder (ZnAc, MW 183.4) was mixed in 1 ml RPMI cell culture medium (Whittaker Corp.). This 2% (w/v) salt mixture contained 7 mg/ml elemental Zn. […] Therefore, a small quantity of HCl was added until the mixture became clear; the pH was about 5.5. The Zn concentration was reduced by half (and the pH was raised somewhat) when an equal volume (1 ml) of cell-free high-titer HIV-1 viral stock was added. The zinc/virus mixture was stirred and incubated for 2 hours at 37° C. (i.e., normal body temperature).
Following this first incubation step, the zinc/virus mixtures were diluted at 1:10, 1:30, and 1:100 ratios using culture medium, and aliquots were added to equal volumes of culture media containing H-9 lymphocytes that had been pretreated overnight with 2 μg/ml Polybreen. The lymphocyte mixtures were incubated for three hours at 37° C.; zinc concentrations during this step were 180, 60, and 18 μg/ml for the 1:10, 1:30, and 1:100 dilutions.
A 2 ml aliquot from each dilution was mixed with an equal volume of 3% ZnAc dissolved in sterile distilled water; after mixing, the zinc concentration was 5.3 mg/ml Zn. These mixtures were incubated for 2 hours, then diluted with culture medium at 1:30, 1:100, and 1:1000 to reduce the toxicity of the zinc to lymphocytes. Four ml of lymphocytes were mixed with 4 ml of each zinc/virus mixture. The zinc/virus/cell mixtures were incubated at 37° C. for 3 hours; zinc concentrations were 88, 27, and 2.7 μg/ml in the 30, 100, and 1000 dilutions.

Data set [2] deals with forearm. Description: Irritation test on forearm / skin. The format is in vivo, human. The procedure: Zinc acetate was purchased from Pfaltz and Bauer (Waterbury, Connecticut). About 0.5 grams were mixed with several drops of distilled water at room temperature. […] The aqueous mixture was rubbed into an area about 3 cm in diameter on the forearm of […] and caused no irritation. Subsequently, about 0.5 grams of the salt were dissolved in a few drops of distilled water, then 10 ml K-Y Lubricating Jelly (sold by Johnson and Johnson, New Brunswick, N.J.) was added to form a gel mixture containing about 5% zinc acetate (w/v). This commercially available mixture contains purified water, hydroxyethyl-cellulose as a thickening agent, glycerin as a lubricant, glucono-delta-lactate to prevent crystallization, chlorhexidine gluconate as a preservative, and sodium hydroxide to reduce the acidity.

The conditions of data set [3]: water; cited from earlier work.
Data set [4] concerns male genitals. Description: Irritation test on male genitals / urethra. The note with it: gel in K-Y Lubricating Jelly, about 5% w/v; passive and active rubbing. The procedure: In all examples, the test subjects were a monogamous married couple, free of genital herpes and all other known sexually transmitted viruses.
The mixture of zinc acetate in K-Y Lubricating Jelly was tested on the male genitals, passively at first and then with active rubbing.
About 0.5 grams were dissolved in several drops of distilled water and tested on the forearm and genitals.

For Zinc acetate, the cell mortality entry is given as “significant cell mortality” in data set [1] (88 μg/ml Zn, 3 h); “no cell mortality” in data set [1] (lower levels (27 and 2.7 μg/ml Zn), 3 h). Moreover, the lymphocyte mortality entry in data set [1] (1:10 dilution, 180 μg/ml Zn, 3 h) was “substantial mortality to the lymphocytes”. Also, the lymphocyte growth result in data set [1] (1:30 dilution, 60 μg/ml Zn, visual observation) is listed as “retarded cell growth during the first few days”. The “irritation, forearm” value in data set [2] (about 0.5 g in several drops of distilled water) is on record as “no irritation”. In addition, in data set [2] (dissolved in water alone), the “burning and irritation to the skin” value is “substantial amount of burning and irritation to the skin”. Moreover, the Molar solubility in data set [3] was 1.64. Besides, the Solubility in data set [3] was 300. For the same substance, the “irritation, male genitals” value in data set [4] was “no irritation”.
